# Assay: Solubility of cannabidiol isolate in glycerol/propylene glycol/water solutions
# Assay type: physicochemical
# Settings: Isolate 10 mg/mL
smiles,measurement,setting,value
"C=C(C)[C@@H]1CCC(C)=C[C@H]1c1c(O)cc(CCCCC)cc1O [Isolate, cannabidiol]",Soluble,"Glycerol 36, PG 52.09, Water 11 (w/w)",YES
same,Soluble,"Glycerol 36, PG 53.09, Water 10 (w/w)",YES
same,soluble at 10 mg/mL (yes/no),"glycerol/propylene glycol/water solution, organic solvent or mixture, Glycerol 36, PG 47.09, Water 16 (w/w)",< 10000 µg/mL

# — patent US20240114949A1, “AEROSOLIZABLE MATERIAL” (Nicoventures Trading Limited, priority 2019, published 2024)
